Laboratory results taken from US8173840B2, “Compounds with high therapeutic index” (Signature R&D Holdings, LLC, priority 2003, dated 2012).

Key:
rats = experiment: Clotting time in rats, different date, time intervals and doses (Table 24); format: in vivo, rat
From the text: The following additional data were obtained, when the same drugs were compared in rats on a different date with different time intervals and doses: […]

[1] = Plasma aspirin and salicylic acid in human volunteers; format: in vivo
From the text: This is shown in FIG. 12 which depicts the concentration of salicyclic Acid in human plasma with respect to four volunteers who took Acetylsalicyclic Acid-L-Threonine Ester and two volunteers who took Aspirin.

[2] = tested on: albino rats (Wistar strain); details: rat, in vivo
Procedure: (§1) The study was conducted at one dose level only along with a vehicle control group as per the recommendation of the Sponsor. The test doses are expressed as Aspirin molar equivalents.

human volunteers = experiment: Blood clotting time studies in human volunteers; format: in vivo; details: human volunteers
Procedure: Several blood clotting time studies were performed on a limited number of human volunteers with Acetylsalicylic Acid-L-Threonine Ester. […] This plot was derived from the data in Table 29. The two Acetylsalicylic Acid-L-Threonine Ester blocks shown above correspond to two separate volunteers who took the test drug over a period of 5 days. The third volunteer took Bayer Aspirin for 5 days. As per FIG. 2, increase in clotting time occurred on the very first day of drug intake, and remained higher than Bayer ASA during the subsequent administrations.

women = details: daily dose of 60 mg, more than 9000 women; cited from earlier work
[3] = tested on: fasted male albino rats (Wistar strain); experiment: Gastric mucosa irritation of acetylsalicylic acid esters; format: in vivo, rat; details: single dose by gavage, 3 hours, 5 animals
Procedure: Aspirin served as a reference control. […] All the doses were expressed as aspirin molar equivalents. The doses used as well as the molar equivalents are presented below. The rats were fasted for a period of 18 to 22 hours before dosing. The test item was administered as a single dose by gavage. Three hours after drug administration, the animals were killed humanely by CO2 gas inhalation. The stomach was dissected out and observed for • the quantity of mucous exudate, • degree of hyperemia and thickening of stomach wall, • hemorrhagic spots (focal or diffuse), nature of hemorrhages (petechial or ecchymotic) along with the size and • perforations

Male albino rats = experiment: Blood clotting time in albino rats, 2 hours after dosing; format: in vivo, rat; details: 20 mg/kg as aspirin, 2 hours (±10 minutes) after dosing
Procedure: Aspirin served as positive control. Male albino rats were exposed to aspirin and to 3 new formulations of amino acid derivatives of aspirin derivatives at one dose level of 20 mg/kg body weight. […]. The doses were expressed as aspirin molar equivalents.
The efficacy in terms of time required for the blood clotting time at the dose level of 20 mg/kg body weight for different formulations of amino acid derivatives of aspirin and aspirin (positive control) are presented below:
The data on the mean clotting time (MCT) of the animals, estimated 2 hours (±10 minutes) after dosing, at the dose level of 20 mg/kg body weight for the formulations of aspirin derivatives, vehicle control and positive control are presented below

albino rats = experiment: Blood clotting time in albino rats, one hour after dosing; format: in vivo, rat; details: one hour after dosing
Procedure: The data on the mean clotting time (MCT) of the animals of low, intermediate and high dose groups of different formulations, vehicle control and positive control groups estimated one hour after dosing were presented below (Table 19):
Aspirin served as positive control. The study was conducted at three dose levels with the new formulations and positive control along with a vehicle control group.
The doses for the main study were selected based on the dose range finding experiments with acetylsalicylic acid. All the doses were expressed as aspirin molar equivalents. The doses used are presented below.

[4] = tested on: albino rats (Wistar strain); experiment: 28-day repeated dose oral toxicity test of Acetylsalicylic Acid-L-Threonine Ester; details: 100 mg/kg as aspirin, oral gavage daily 28 days;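 note: one dose level only, compared with a vehicle control group, with doses stated as Aspirin molar equivalents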
Procedure: as §1

## CC(=O)Oc1ccccc1C(=O)O [acetylsalicylic acid, reference compound]
rats; 10 mg/kg 1 hr
  Clotting Time: 9.8 min
rats; 10 mg/kg 24 hr
  Clotting Time: 4.4 min
rats; 20 mg/kg 2 hr
  Clotting Time: 5.4 min
[1]
  Salicylic Acid in human plasma (profile, words): Rapid influx and efflux of Salicylic Acid
[1]; 325 mg dose, oral
  Aspirin in blood / plasma: showed Plasma levels of Aspirin
[2]
  Alkaline Phosphatase, Significance [P < 0.05]: Increase (Female)
  All Blood Parameters, Significance [P < 0.05]: None
  Blood Urea, Significance [P < 0.05]: Decrease (Female)
  Food intake: normal and comparable to the animals of vehicle control group
  Kidney (Abs) organ weight, Significance[P < 0.05]: Decrease (Male)
  Kidney (Rel) organ weight, Significance[P < 0.05]: Increase (Male)
  SGPT and Cholesterol, Significance [P < 0.05]: Increase (Male)
  Sodium, Significance [P < 0.05]: Increase (Female)
  Spleen (Abs) organ weight, Significance[P < 0.05]: Decrease (Female)
  Spleen (Rel) organ weight, Significance[P < 0.05]: Increase (Female)
  histological sections of organs: mild fatty changes in the cardiac muscle fibers of heart and mild catarrhal changes of gastric mucosa
Human volunteers; 81 mg
  AVERAGE CLOTTING TIME: 4.5 min
Human volunteers; 325 mg
  AVERAGE CLOTTING TIME: 5.7 min
women
  reduced the risk of pre-eclampsia by: 13%
[3]; 100.0 mg/kg as acetylsalicylic acid, listed as aspirin
  Observation, gastric mucosal irritation: failed to cause any evidence of gastric mucosal irritation
[3]; 200.0 mg/kg as acetylsalicylic acid, listed as aspirin (acetylsalicylic acid)
  Observation, gastric mucosal irritation: caused irritation of the gastric mucosal in all the fasted male albino rats
Male albino rats
  Mean Clotting Time (± S.D.): 5.4 ± 1.17 min
Albino rats; 1.0 mg/kg as aspirin
  Mean Clotting Time (±S.D.), Low Dose: 6.2 ± 1.40 min
Albino rats; 4.0 mg/kg as aspirin
  Mean Clotting Time (±S.D.), Intermediate Dose: 8.1 ± 1.97 min
Albino rats; 10.0 mg/kg as aspirin
  Mean Clotting Time (±S.D.), High Dose: 9.8 ± 1.32 min
Albino rats
  statistical analysis of mean clotting time vs vehicle control: significant improvement at 5% significance level in the efficacy for the intermediate and high dose
[4]
  survival: survived through the dosing period of 28 days
